system: Plasma; experiment: Stability in mouse plasma at 5 uM after 120 mins by LC-MS analysis; type: ADME, cell-free; conditions: 2 h

In the case of COc1cccc(C2=CC3=CC(=O)O[C@@]34C[C@@H]2N2CCCC[C@@H]24)c1, the Stability is reported as “Stable”.
In the case of O=C1C=C2C=C[C@@H]3C[C@@]2(O1)[C@H]1CCCCN31 [SECURININE], the Stability is reported as “Stable”.

system: Plasma; experiment: Stability in human plasma at 5 uM after 120 mins by LC-MS analysis; type: ADME, cell-free; conditions: 2 h

For COc1cccc(C2=CC3=CC(=O)O[C@@]34C[C@@H]2N2CCCC[C@@H]24)c1, the Stability was “Stable”.
With O=C1C=C2C=C[C@@H]3C[C@@]2(O1)[C@H]1CCCCN31 [SECURININE] the Stability was “Stable”.

system: A549; experiment: Cytotoxicity against human A549 cells assessed as growth inhibition after 72 hrs by ATPlite assay; type: functional, cell-based; conditions: A549, 72 h

Cc1cccc(C2=CC3=CC(=O)O[C@@]34C[C@@H]2N2CCCC[C@@H]24)c1 and O=C1C=C2C=C(c3cccc(Cl)c3)[C@@H]3C[C@@]2(O1)[C@H]1CCCCN31 are within 1.5-fold of each other in IC50: 140 nM for the first, 110 nM for the second.

Going from COc1cc([C@@H]2c3cc4c(cc3[C@@H](O[C@@H]3O[C@@H]5CO[C@@H](C)O[C@H]5[C@H](O)[C@H]3O)[C@H]3COC(=O)[C@H]23)OCO4)cc(OC)c1O [ETOPOSIDE] to COc1cccc(C2=CC3=CC(=O)O[C@@]34C[C@@H]2N2CCCC[C@@H]24)c1, the IC50 falls from 590 nM to 120 nM (4.9-fold).

With O=C1C=C2C=C[C@@H]3C[C@@]2(O1)[C@H]1CCCCN31 [SECURININE] the IC50 was > 10000 nM.

system: not listed separately; experiment: Cytotoxicity against human HL60 cells assessed as growth inhibition after 72 hrs by ATPlite assay; type: functional, cell-based; conditions: HL-60, 72 h

Cc1cccc(C2=CC3=CC(=O)O[C@@]34C[C@@H]2N2CCCC[C@@H]24)c1 and O=C1C=C2C=C(c3cccc(Cl)c3)[C@@H]3C[C@@]2(O1)[C@H]1CCCCN31 are within 1.5-fold of each other in IC50: 130 nM for the first, 140 nM for the second.

First: COc1cc([C@@H]2c3cc4c(cc3[C@@H](O[C@@H]3O[C@@H]5CO[C@@H](C)O[C@H]5[C@H](O)[C@H]3O)[C@H]3COC(=O)[C@H]23)OCO4)cc(OC)c1O [ETOPOSIDE]
Second: COc1cccc(C2=CC3=CC(=O)O[C@@]34C[C@@H]2N2CCCC[C@@H]24)c1
The IC50 of the first is 6.1-fold higher: 860 nM for the first, 140 nM for the second.

In the case of O=C1C=C2C=C[C@@H]3C[C@@]2(O1)[C@H]1CCCCN31 [SECURININE], the IC50 is reported as > 10000 nM.

system: A-375; experiment: Cytotoxicity against human A375 cells assessed as growth inhibition after 72 hrs by ATPlite assay; type: functional, cell-based; conditions: A-375, 72 h

Cc1cccc(C2=CC3=CC(=O)O[C@@]34C[C@@H]2N2CCCC[C@@H]24)c1 and O=C1C=C2C=C(c3cccc(Cl)c3)[C@@H]3C[C@@]2(O1)[C@H]1CCCCN31 are within 1.5-fold of each other in IC50: 70 nM for the first, 80 nM for the second.

Compared with COc1cc([C@@H]2c3cc4c(cc3[C@@H](O[C@@H]3O[C@@H]5CO[C@@H](C)O[C@H]5[C@H](O)[C@H]3O)[C@H]3COC(=O)[C@H]23)OCO4)cc(OC)c1O [ETOPOSIDE], COc1cccc(C2=CC3=CC(=O)O[C@@]34C[C@@H]2N2CCCC[C@@H]24)c1 is 3-fold lower in IC50: 240 nM for the first, 80 nM for the second. The second is the more potent here.

Work on O=C1C=C2C=C[C@@H]3C[C@@]2(O1)[C@H]1CCCCN31 [SECURININE] yielded an IC50 of 6100 nM.

system: MCF7; experiment: Cytotoxicity against human MCF7 cells assessed as growth inhibition by CCK8 assay; type: functional, cell-based; conditions: not given

Work on O=C1C=C2C=C[C@@H]3C[C@@]2(O1)[C@H]1CCCCN31 [SECURININE] yielded an IC50 of 25000 nM.

system: Plasma; experiment: Stability in rat plasma at 5 uM after 120 mins by LC-MS analysis; type: ADME, cell-free; conditions: 2 h

With COc1cccc(C2=CC3=CC(=O)O[C@@]34C[C@@H]2N2CCCC[C@@H]24)c1 the Stability was “Stable”.
In the case of O=C1C=C2C=C[C@@H]3C[C@@]2(O1)[C@H]1CCCCN31 [SECURININE], the Stability is reported as “Stable”.

system: A549; experiment: Cytotoxicity against human A549 cells after 72 hrs by Coulter counter analysis; type: functional, cell-based; conditions: A549, 72 h

O=C1C=C2C=C[C@@H]3C[C@@]2(O1)[C@H]1CCCCN31 [SECURININE] gave an IC50 of 25000 nM.

system: not listed separately; experiment: Cytotoxicity against human HCT116 cells assessed as growth inhibition at 1 uM after 72 hrs by ATPlite assay relative to control; type: functional; conditions: HCT-116, 72 h, read-out: GI

Going from CN(C)c1cccc(C2=CC3=CC(=O)O[C@@]34C[C@@H]2N2CCCC[C@@H]24)c1 to Cc1cccc(C2=CC3=CC(=O)O[C@@]34C[C@@H]2N2CCCC[C@@H]24)c1, the inhibition of growth at 1 µM rises from 10.2% to 75.5%.

Compared with COc1ccc(C2=CC3=CC(=O)O[C@@]34C[C@@H]2N2CCCC[C@@H]24)cc1, COc1cccc(C2=CC3=CC(=O)O[C@@]34C[C@@H]2N2CCCC[C@@H]24)c1 is higher in inhibition of growth at 1 µM: 11.7% for the first, 76.3% for the second.

First: O=C1C=C2C=C(c3ccc4ccccc4c3)[C@@H]3C[C@@]2(O1)[C@H]1CCCCN31
Second: O=C1C=C2C=C(c3ccccc3)[C@@H]3C[C@@]2(O1)[C@H]1CCCCN31
The inhibition of growth at 1 µM of the first is higher: 10.8% for the first, 6.8% for the second.

Going from O=C1C=C2C=C(c3ccc(Cl)c(Cl)c3)[C@@H]3C[C@@]2(O1)[C@H]1CCCCN31 to O=C1C=C2C=C(c3cccc(Cl)c3)[C@@H]3C[C@@]2(O1)[C@H]1CCCCN31, the inhibition of growth at 1 µM rises from 12.3% to 76.6%.

In the case of O=C1C=C2C=C[C@@H]3C[C@@]2(O1)[C@H]1CCCCN31 [SECURININE], the inhibition of growth at 1 µM is reported as 7.6%.

system: not listed separately; experiment: Cytotoxicity against human HCT116 cells assessed as growth inhibition after 72 hrs by ATPlite assay; type: functional, cell-based; conditions: HCT-116, 72 h

Cc1cccc(C2=CC3=CC(=O)O[C@@]34C[C@@H]2N2CCCC[C@@H]24)c1 and O=C1C=C2C=C(c3cccc(Cl)c3)[C@@H]3C[C@@]2(O1)[C@H]1CCCCN31 are within 1.5-fold of each other in IC50: 280 nM for the first, 230 nM for the second.

Compared with COc1cc([C@@H]2c3cc4c(cc3[C@@H](O[C@@H]3O[C@@H]5CO[C@@H](C)O[C@H]5[C@H](O)[C@H]3O)[C@H]3COC(=O)[C@H]23)OCO4)cc(OC)c1O [ETOPOSIDE], COc1cccc(C2=CC3=CC(=O)O[C@@]34C[C@@H]2N2CCCC[C@@H]24)c1 is lower in IC50: > 10000 nM for the first, 260 nM for the second. The second is the more potent here.

For O=C1C=C2C=C[C@@H]3C[C@@]2(O1)[C@H]1CCCCN31 [SECURININE], the IC50 was > 10000 nM.

system: not listed separately; experiment: Cytotoxicity against human HCT116 cells assessed as growth inhibition at 20 uM after 72 hrs by ATPlite assay relative to control; type: functional; conditions: HCT-116, 72 h, read-out: GI

First: CN(C)c1cccc(C2=CC3=CC(=O)O[C@@]34C[C@@H]2N2CCCC[C@@H]24)c1
Second: Cc1cccc(C2=CC3=CC(=O)O[C@@]34C[C@@H]2N2CCCC[C@@H]24)c1
The inhibition of growth at 20 µM of the first is lower: 75.7% for the first, 92.5% for the second.

Compared with COc1ccc(C2=CC3=CC(=O)O[C@@]34C[C@@H]2N2CCCC[C@@H]24)cc1, COc1cccc(C2=CC3=CC(=O)O[C@@]34C[C@@H]2N2CCCC[C@@H]24)c1 is higher in inhibition of growth at 20 µM: 24.8% for the first, 92.8% for the second.

Compared with O=C1C=C2C=C(c3ccc4ccccc4c3)[C@@H]3C[C@@]2(O1)[C@H]1CCCCN31, O=C1C=C2C=C(c3ccccc3)[C@@H]3C[C@@]2(O1)[C@H]1CCCCN31 is higher in inhibition of growth at 20 µM: 51.1% for the first, 87.4% for the second.

Going from O=C1C=C2C=C(c3ccc(Cl)c(Cl)c3)[C@@H]3C[C@@]2(O1)[C@H]1CCCCN31 to O=C1C=C2C=C(c3cccc(Cl)c3)[C@@H]3C[C@@]2(O1)[C@H]1CCCCN31, the inhibition of growth at 20 µM rises from 80.5% to 93%.

In the case of O=C1C=C2C=C[C@@H]3C[C@@]2(O1)[C@H]1CCCCN31 [SECURININE], the inhibition of growth at 20 µM is reported as 90.7%.

system: not listed separately; experiment: Cytotoxicity against human HCT116 cells assessed as growth inhibition at 10 uM after 72 hrs by ATPlite assay relative to control; type: functional; conditions: HCT-116, 72 h, read-out: GI

First: CN(C)c1cccc(C2=CC3=CC(=O)O[C@@]34C[C@@H]2N2CCCC[C@@H]24)c1
Second: Cc1cccc(C2=CC3=CC(=O)O[C@@]34C[C@@H]2N2CCCC[C@@H]24)c1
The inhibition of growth at 10 µM of the first is lower: 52.7% for the first, 93.3% for the second.

First: COc1ccc(C2=CC3=CC(=O)O[C@@]34C[C@@H]2N2CCCC[C@@H]24)cc1
Second: COc1cccc(C2=CC3=CC(=O)O[C@@]34C[C@@H]2N2CCCC[C@@H]24)c1
The inhibition of growth at 10 µM of the first is lower: 9.4% for the first, 92.7% for the second.

First: O=C1C=C2C=C(c3ccc4ccccc4c3)[C@@H]3C[C@@]2(O1)[C@H]1CCCCN31
Second: O=C1C=C2C=C(c3ccccc3)[C@@H]3C[C@@]2(O1)[C@H]1CCCCN31
The inhibition of growth at 10 µM of the first is lower: 30.9% for the first, 86.7% for the second.

Going from O=C1C=C2C=C(c3ccc(Cl)c(Cl)c3)[C@@H]3C[C@@]2(O1)[C@H]1CCCCN31 to O=C1C=C2C=C(c3cccc(Cl)c3)[C@@H]3C[C@@]2(O1)[C@H]1CCCCN31, the inhibition of growth at 10 µM rises from 61% to 93.4%.

With O=C1C=C2C=C[C@@H]3C[C@@]2(O1)[C@H]1CCCCN31 [SECURININE] the inhibition of growth at 10 µM was 50.6%.

— ChEMBL document CHEMBL3758124, “Synthesis and biological evaluation of new securinine analogues as potential anticancer agents” (Eur J Med Chem, 2016)
